# Assay results taken from PMC7854658, “Structural basis for ligand recognition of the neuropeptide Y Y2 receptor” (Nature Communications, 2021).
# Numbering of substitutions follows the chain as printed. Several values for one entry are separate records, joined by “and”; a condition that tells them apart may be missing. Identical values can stand only once.
# Assays:
# Assay type in all cases: cell-based
# [1] = target: T1, wild-type Y2R (Homo sapiens, UniProt P49146); experiment: NPY-induced IP accumulation (IP-One) with or without 1 μM antagonist; conditions: WT
# T1 construct: expressed in transfected cells; host or cells: HEK293
# T1 sequence (P49146 1-381): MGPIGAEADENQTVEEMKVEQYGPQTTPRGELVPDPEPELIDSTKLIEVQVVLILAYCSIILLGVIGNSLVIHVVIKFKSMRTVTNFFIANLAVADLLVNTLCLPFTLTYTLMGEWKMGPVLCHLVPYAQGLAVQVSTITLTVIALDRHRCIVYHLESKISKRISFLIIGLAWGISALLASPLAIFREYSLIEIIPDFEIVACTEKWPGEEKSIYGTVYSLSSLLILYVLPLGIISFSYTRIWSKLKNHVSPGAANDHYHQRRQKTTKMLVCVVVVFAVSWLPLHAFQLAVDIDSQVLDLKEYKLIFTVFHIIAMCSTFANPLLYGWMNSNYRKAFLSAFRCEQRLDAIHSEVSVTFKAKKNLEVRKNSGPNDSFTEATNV
# Method: (§1) The plasmid hY2R_eYFP_pVitro2 encoding the WT Y2R and a fluorophore for investigating the receptor localization was used as template for the generation of receptor point mutations as previously described. Mutagenesis PCR was performed using the Phusion High-Fidelity Polymerase (Thermo Fisher Scientific, Waltham, MA, USA). […] The preparations of the plasmid DNA were performed using the Wizard plus Mini or Midi DNA purification kit (Promega, Madison, WI, USA).
# (§2) To determine the contribution of residues to antagonist binding, IP-One accumulation assays (Cisbio, Codolet, France) were performed. HEK293 cells were seeded into six-well plates and transiently cotransfected with 3200 ng of receptor plasmid DNA and 800 ng of the chimeric G protein (Gα∆6qi4myr) to redirect the Gαi signaling pathway to the Gαq phospholipase C pathway. Transient transfection was carried out using Metafectene as transfection reagent according to the manufacturer’s protocol (Biontex, Munich, Germany) over night. The cells were then reseeded into white 384-well microplates (Greiner Bio-One, Kremsmünster, Austria) at a density of 15,000 cells per well and grown for additional 24 h.
# (§3) All dilutions were performed in HBSS containing 20 mM LiCl (stimulation buffer) and DMSO with a final concentration of 0.01%.
# (§4) To determine the amount of cellular IPs, the FRET acceptor (IP1-d2) and the FRET donor (anti-IP1-Cryptate) were reconstituted and diluted in lysis and detection buffer (1:20) as described in the manufacturer’s protocol. Three microliters of both solutions were added, and the cells were incubated on a tumbler for 60 min.
# [2] = target: T2, Y2R mutant F307^7.35E (Homo sapiens, UniProt P49146, F307E); experiment: NPY-induced IP accumulation (IP-One), mutant; conditions: 1 μM antagonist, source data Fig. 3
# T2 construct: expressed in transfected cells; host or cells: HEK293
# T2 sequence (P49146 whole entry F307E): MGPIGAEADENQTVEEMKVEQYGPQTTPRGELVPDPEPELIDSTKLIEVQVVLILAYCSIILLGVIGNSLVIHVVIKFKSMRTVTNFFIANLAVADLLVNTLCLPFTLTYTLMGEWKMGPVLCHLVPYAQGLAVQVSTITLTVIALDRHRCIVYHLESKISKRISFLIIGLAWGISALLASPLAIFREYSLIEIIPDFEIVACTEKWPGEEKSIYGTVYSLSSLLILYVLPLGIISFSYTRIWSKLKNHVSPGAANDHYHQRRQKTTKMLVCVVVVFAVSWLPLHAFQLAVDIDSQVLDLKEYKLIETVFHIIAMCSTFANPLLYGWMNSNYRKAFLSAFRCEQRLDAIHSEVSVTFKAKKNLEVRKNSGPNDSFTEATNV
# Method: as §1, §2, §3, §4
# [3] = target: T3, Y2R mutant L224^5.43A (Homo sapiens, UniProt P49146, L224A); experiment: NPY-induced IP accumulation (IP-One), mutant; conditions: 1 μM antagonist, source data Fig. 3
# T3 construct: expressed in transfected cells; host or cells: HEK293
# T3 sequence (P49146 whole entry L224A): as the sequence (P49146 whole entry F307E) above, with L224A, E307F counted along it
# Method: as §1, §2, §3, §4
# [4] = target: T4, Y2R mutant L284^6.51A (Homo sapiens, UniProt P49146, L284A); experiment: NPY-induced IP accumulation (IP-One), mutant
# T4 construct: expressed in transfected cells; host or cells: HEK293
# T4 sequence (P49146 1-381 L284A): T1 sequence (P49146 1-381) with L284A
# Method: as §1, §2, §3, §4
# [5] = target: T5, Y2R mutant Q288^6.55A (Homo sapiens, UniProt P49146, Q288A); experiment: NPY-induced IP accumulation (IP-One), mutant
# T5 construct: expressed in transfected cells; host or cells: HEK293
# T5 sequence (P49146 1-381 Q288A): T1 sequence (P49146 1-381) with Q288A
# Method: as §1, §2, §3, §4
# [6] = target: T6, Y2R mutant V126^3.28A (Homo sapiens, UniProt P49146, V126A); experiment: NPY-induced IP accumulation (IP-One), mutant
# T6 construct: expressed in transfected cells; host or cells: HEK293
# T6 sequence (P49146 1-381 V126A): T1 sequence (P49146 1-381) with V126A
# Method: as §1, §2, §3, §4
# [7] = target: T7, Y2R mutant W116^ECL1A (Homo sapiens, UniProt P49146, W116A); experiment: NPY-induced IP accumulation (IP-One), mutant; conditions: 1 μM antagonist, source data Fig. 3
# T7 construct: expressed in transfected cells; host or cells: HEK293
# T7 sequence (P49146 whole entry W116A): as the sequence (P49146 whole entry F307E) above, with W116A, E307F counted along it
# Method: as §1, §2, §3, §4
# [8] = target: T8, Y2R mutant Y228^5.47A (Homo sapiens, UniProt P49146, Y228A); experiment: NPY-induced IP accumulation (IP-One), mutant; conditions: 1 μM antagonist, source data Fig. 3
# T8 construct: expressed in transfected cells; host or cells: HEK293
# T8 sequence (P49146 whole entry Y228A): as the sequence (P49146 whole entry F307E) above, with Y228A, E307F counted along it
# Method: as §1, §2, §3, §4
# [9] = 1 μM antagonist, source data Fig. 3
# [10] = EC50(NPY + 1 μM antagonist)/EC50(NPY)
# [11] = EC50 ratio (WT)/EC50 ratio (mutant)
compound,measurement,setting,value
N=C(N)NCCC[C@H](NC(=O)CC1(CC(=O)N2CCN(C3c4ccccc4NC(=O)c4ccccc43)CC2)CCCC1)C(=O)NCCn1c(=O)n(-c2ccccc2)n(-c2ccccc2)c1=O (stereo partly drawn) [BIIE0246],Average EC50 ratio,[1]; [9],157.4
same,EC50 ratio (individual experiments),[1]; [9],143.5 and 171.2
same,EC50 ratio,[1]; [10],144 and 171 and 159
same,Ratio change (fold),[1]; [11],1 fold
same,Average EC50 ratio,[2],232.3
same,EC50 ratio (individual experiments),[2],75.3 and 389.3
same,Average EC50 ratio,[3],738.6
same,EC50 ratio (individual experiments),[3],1348.6 and 128.7
same,Average EC50 ratio,[4]; [9],108.6
same,EC50 ratio (individual experiments),[4]; [9],88.8 and 128.4
same,EC50 ratio,[4]; [10],89 and 128
same,Ratio change (fold),[4]; [11],1.8 fold and 1.2 fold
same,Average EC50 ratio,[5]; [9],143.2
same,EC50 ratio (individual experiments),[5]; [9],101.5 and 185.0
same,EC50 ratio,[5]; [10],102 and 185
same,Ratio change (fold),[5]; [11],1.6 fold and 0.9 fold
same,Average EC50 ratio,[6]; [9],302.6
same,EC50 ratio (individual experiments),[6]; [9],285.2 and 320.0
same,EC50 ratio,[6]; [10],285 and 320
same,Ratio change (fold),[6]; [11],0.6 fold and 0.5 fold
same,Average EC50 ratio,[7],38.2
same,EC50 ratio (individual experiments),[7],21.7 and 54.7
same,Average EC50 ratio,[8],18.8
same,EC50 ratio (individual experiments),[8],10.5 and 27.0
